In patent US20040248859A1, “Medicinal compositions for treating secondary parathyroid hyperfunction and remedies for cardiovascular complications in association with treatment for secondary parathyroid hyperfunction” (priority 2001, published 2004):

What was measured:
[1] = system: 5/6 nephrectomized rats (kidney failure model with 2HPT); experiment: Ca and Pi in serum (serum Ca×Pi product) of 5/6 nephrectomized rats; assay type: in vivo, rat; conditions: for serum Ca×Pi product over the SNX control group: three times a week, 7 administrations
From the text: (§1) Rats with 5/6 nephrectomy (5/6 nephrectomized rats) were used as an experimental model to examine the agent of the present invention for its effect on cardiovascular complications. Such 5/6 nephrectomized rats are widely used as an experimental nephritis model with 2HPT (Ichikawa et al., Nephrology, vol. 4, pp. 391-395, 1998).
(§2) Seven-week-old male SD rats (Japan SLC, Inc.) were subjected to 5/6 nephrectomy according to the method of Platt et al. (Platt R. et al., Clin. Sci. 11, 217-231, 1952) to remove the whole of the right kidney and 2/3 of the left kidney. The rats were then allowed to rest for 10 weeks to create a kidney failure model with 2HPT.
(§3) The nephrectomized rats were divided into 4 test groups: OCT 1.25 μg/kg group (8 rats), OCT 6.25 μg/kg group (8 rats), 1,25(OH)2D3 0.125 μg/kg group (8 rats) and 1,25(OH)2D3 0.625 μg/kg group (8 rats).
(§4) Starting at 10 weeks after surgery, the rats of each group were administered with a given dose of OCT or 1,25-dihydroxyvitamin D3 (each dissolved in phosphate buffer, pH 6.52) via the tail vein. Administration was conducted three times a week for a total of 7 administration (i.e., on Monday, Wednesday, Friday, Monday, Wednesday, Friday and Monday). Twenty-four hours after the last administration, the blood was collected from the abdominal descending aorta of each rat under ether anesthesia. The rats were then sacrificed by exsanguination and the heart and aorta were excised from each rat.
(§5) Six rats of sham-operated (Sham control) group were subjected to renal decapsulation alone instead of 5/6 nephrectomy and then treated in the same manner as used for the test groups, except that phosphate buffer (Ph 6.52) was administered instead of OCT or 1,25-dihydroxyvitamin D3. Likewise, 9 rats of SNX control group were treated in the same manner as used for the test groups, except that phosphate buffer (pH 6.52) was administered instead of OCT or 1,25-dihydroxyvitamin D3.
2. Ca and Pi in serum After serum was separated from the collected blood, Ca and Pi contained in the serum were measured with a Hitachi 7170-E autoanalyzer using an Autosera reagent (Daiichi Pure Chemicals Co., Ltd.) to determine the serum Ca×Pi product for each rat.
(§6) The relationship between Sham control group and SNX control group was analyzed by unpaired t-test. The relationship between SNX control group and each OCT- or 1,25(OH)2D3-administered group was analyzed by Dunnett's multiple comparison test.

[2] = system: 5/6 nephrectomized rats (kidney failure model with 2HPT); experiment: Ca and Pi contents in individual organs (aorta and heart) of 5/6 nephrectomized rats; assay type: in vivo, rat
From the text: as §1, §2, §3, §4, §5
Each heart and aorta were lyophilized for 24 hours in a FREEZE DRYER FD-5N (trade name, EYELA) and then treated for 48 hours with a chloroform/methanol solution (chloroform:methanol=2:1, special-reagent-grade chloroform and methanol were both purchased from Junsei Chemical Co., Ltd.). Subsequently, each organ was dehydrated for 3 hours with acetone (special reagent grade, Junsei Chemical Co., Ltd.) and then allowed to stand at room temperature for 24 hours. After delipidization and dehydration, each organ was transferred to a crucible and weighed to determine dry weight (Mettler). Ashing was carried out in a muffle furnace KDF S90 (trade name, Denken Co., Ltd., Kyoto, Japan) at 900° C. for 12 hours. The ashed sample was mixed with […] hydrochloric acid (1.0 mL), allowed to stand for 3 hours to dissolve sufficiently, and then collected in a polypropylene tube. The crucible was washed with purified water (1.0 mL), which was then also collected in the tube. Each sample was stored at 4° C. until measurement. Ca and Pi were measured with a Hitachi 7170-E autoanalyzer to calculate the Ca and Pi contents per gram of each organ.
as §6

[3] = system: 5/6 nephrectomized rats (kidney failure model with 2HPT); experiment: Parathyroid hormone levels in blood (serum PTH, radioimmunoassay) of 5/6 nephrectomized rats; assay type: in vivo, rat; conditions: for effect on serum PTH levels: all doses (OCT 1.25 and 6.25 μg/kg, 1,25(OH)2D3 0.125 and 0.625 μg/kg), versus SNX control
From the text: as §1, §2, §3
Starting at 10 weeks after surgery, the rats of each group were administered with a given dose of OCT or 1,25-dihydroxyvitamin D3 (each dissolved in phosphate buffer, pH 6.52) via the tail vein. Administration was conducted three times a week for a total of 7 administration (i.e., on Monday, Wednesday, Friday, Monday, Wednesday, Friday and Monday). Twenty-four hours after the last administration, the blood was collected from the abdominal descending aorta of each rat under ether anesthesia. The rats were then sacrificed by exsanguination and the heart and aorta were excised from each rat. […]
After serum was separated from the collected blood, the level of parathyroid hormone (PTH) contained in the serum was measured with a commercially available radioimmunoassay kit (Immutopics, Inc., USA).
as §6

[4] = in vivo; cited from earlier work
[5] = 5/6 nephrectomized rats, via tail vein
[6] = 1,25(OH)2D3 0.125 μg/kg group versus OCT 6.25 μg/kg group (almost the same serum Ca×Pi product)

With C=C1/C(=C\C=C2/CCC[C@]3(C)[C@@H]([C@H](C)CCCC(C)(C)O)CC[C@@H]23)C[C@@H](O)C[C@@H]1O [1,25-dihydroxyvitamin D3] the “serum Ca×Pi product over the SNX control group” value ([1]; 0.125 μg/kg via tail vein) was “no significant elevation”, the “serum Ca×Pi product over the SNX control group” value ([1]; 0.625 μg/kg via tail vein, 24 h after last administration, p<0.001) was “significant elevation” and the “minimum dose required to produce an elevating action on Ca×Pi product” value [1, 5] was 0.625 µg/kg. For the same molecule, the “serum Ca×Pi product, comparison of the two groups” value ([1]; OCT 6.25 μg/kg group versus 1,25(OH)2D3 0.125 μg/kg group) was “almost the same level”, the “Ca content in the aorta over the SNX control group” value ([2]; 0.125 and 0.625 μg/kg, p<0.001) was “dose-dependent significant increases” and the “Ca content in the heart over the SNX control group” value ([2]; 0.125 and 0.625 μg/kg, p<0.001) was “dose-dependent significant increases”. For the same molecule, the “Pi content in the aorta over the SNX control group” value ([2]; 0.125 and 0.625 μg/kg, p<0.001) was “dose-dependent significant increases”, the “Pi content in the heart over the SNX control group” value ([2]; 0.125 and 0.625 μg/kg, p<0.001) was “dose-dependent significant increases” and the “deposition of Ca in the aorta as compared to OCT” value [2, 6] was “apparently higher deposition”. The “deposition of Pi in the aorta as compared to OCT” value [2, 6] was “apparently higher deposition”, the “deposition of Pi in the heart as compared to OCT” value ([2]; 1,25(OH)2D3 0.125 μg/kg group versus OCT 6.25 μg/kg group, p<0.01) was “significantly higher deposition” and the “deposition of Ca in the heart as compared to OCT” value ([2]; 1,25(OH)2D3 0.125 μg/kg group versus OCT 6.25 μg/kg group, p<0.05) was “significantly higher deposition”. For the same molecule, the “dose at which the therapeutic effect on secondary hyperparathyroidism (decreasing effect on PTH levels) can be produced” value [3, 5] was 0.125 µg/kg, the “effect on serum PTH levels” value [3] was “decreasing effect on PTH levels at all doses” and the blood half-life [4] was at least 1 h.
For C=C1/C(=C\C=C2/CCC[C@]3(C)[C@@H]([C@H](C)OCCC(C)(C)O)CC[C@@H]23)C[C@@H](O)C[C@@H]1O [OCT, 1α,3β-dihydroxy-20S-(3-hydroxy-3-methylbutyloxy)-9,10-seco-5,7,10(19)-pregnatriene], the blood calcium levels ([1]; rat, in vivo) was “does not cause increase”, the “deposition of Ca and Pi in the aorta and heart, OCT-administered groups versus 1,25(OH)2D3-administered groups” value ([2]; rat, in vivo) was “significantly lower deposition” and the “effect on serum PTH levels” value [3] was “decreasing effect on PTH levels at all doses”. The blood half-life [4] was “about 20 minutes”.
